In article PMC9706024, “Chromenone Derivatives as Monoamine Oxidase Inhibitors from Marine-Derived MAR4 Clade Streptomyces sp. CNQ-031” (Journal of Microbiology and Biotechnology, 2021):
Entries after “also recorded” stand apart in the source; their conditions may differ.

How the values were obtained:
[1] = target: T1, AChE from Electrophorus electricus (Electrophorus electricus, UniProt O42275); assay: biochemical; conditions: means ± SD of duplicate experiments; for remaining activity at 10 µM: read-out: Residual activity at 10 µM (%) AChE
T1 construct: AChE from Electrophorus electricus; purchased Sigma-Aldrich (USA)
T1 sequence (O42275 24-633): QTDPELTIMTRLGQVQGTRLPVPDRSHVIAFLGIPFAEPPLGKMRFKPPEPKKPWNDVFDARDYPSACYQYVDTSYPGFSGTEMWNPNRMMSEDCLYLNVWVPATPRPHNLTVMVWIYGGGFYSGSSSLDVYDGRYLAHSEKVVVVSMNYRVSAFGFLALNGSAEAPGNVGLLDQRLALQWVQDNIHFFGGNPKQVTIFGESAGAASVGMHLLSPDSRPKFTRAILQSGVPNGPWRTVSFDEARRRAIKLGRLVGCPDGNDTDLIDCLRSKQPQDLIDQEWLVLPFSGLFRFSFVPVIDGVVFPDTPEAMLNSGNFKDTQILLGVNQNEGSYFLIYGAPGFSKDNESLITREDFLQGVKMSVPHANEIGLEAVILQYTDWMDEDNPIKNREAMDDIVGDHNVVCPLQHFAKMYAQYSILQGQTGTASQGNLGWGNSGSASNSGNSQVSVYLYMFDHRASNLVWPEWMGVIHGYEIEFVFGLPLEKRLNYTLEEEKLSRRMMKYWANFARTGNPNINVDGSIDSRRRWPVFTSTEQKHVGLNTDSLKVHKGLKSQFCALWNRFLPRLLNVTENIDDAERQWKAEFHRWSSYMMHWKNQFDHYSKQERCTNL

[2] = target: T2, BChE from equine serum (Equus caballus, UniProt P81908); assay: biochemical; conditions: means ± SD of duplicate experiments, read-out: Residual activity at 10 µM (%) BChE
T2 construct: BChE from equine serum; purchased Sigma-Aldrich (USA); host or cells: equine serum
T2 sequence (P81908 whole entry): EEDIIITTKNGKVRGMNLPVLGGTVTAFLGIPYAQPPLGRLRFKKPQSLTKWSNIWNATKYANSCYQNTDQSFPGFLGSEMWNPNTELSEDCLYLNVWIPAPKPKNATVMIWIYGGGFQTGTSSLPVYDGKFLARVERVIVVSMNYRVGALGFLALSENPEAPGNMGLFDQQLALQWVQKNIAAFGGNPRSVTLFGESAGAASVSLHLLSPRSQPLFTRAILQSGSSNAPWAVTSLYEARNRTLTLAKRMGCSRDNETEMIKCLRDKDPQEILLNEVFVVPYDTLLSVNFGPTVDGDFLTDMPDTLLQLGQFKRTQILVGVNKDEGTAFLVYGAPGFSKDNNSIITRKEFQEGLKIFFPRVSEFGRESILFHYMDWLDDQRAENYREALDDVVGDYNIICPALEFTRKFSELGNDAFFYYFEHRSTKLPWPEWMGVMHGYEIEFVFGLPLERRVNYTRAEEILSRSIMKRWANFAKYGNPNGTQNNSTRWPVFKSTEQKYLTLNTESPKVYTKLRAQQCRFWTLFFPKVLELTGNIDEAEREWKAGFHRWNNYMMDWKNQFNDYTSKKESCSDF
Procedure: (§1) All other chemicals were of reagent grade.
(§2) MAO-A and MAO-B inhibitory activities were determined using a continuous spectrophotometric method as described previously. […] AChE activities were assayed as described by Ellman et al., with slight modification. The inhibitory activities of AChE and BChE were measured after the enzyme was preincubated with inhibitors for 15 min and before adding DTNB and the substrate (ATCI and BTCI, respectively). […] Reaction rates were expressed as changes in absorbance per minute.

[3] = target: T3, Recombinant human MAO-A (Homo sapiens, UniProt P21397); assay: Reversibility of MAO-A inhibition by dialysis; assay type: biochemical; conditions: for Reversibility of MAO-A inhibition: dialysis; for Relative activity of MAO-A, dialyzed (AD) / Relative activity of MAO-A, undialyzed (AU): inhibitor at twice the IC50, preincubated 30 min; for Relative activity of MAO-A, dialyzed (AD): after dialysis
T3 construct: purchased Sigma-Aldrich (USA)
T3 sequence (P21397 1-527): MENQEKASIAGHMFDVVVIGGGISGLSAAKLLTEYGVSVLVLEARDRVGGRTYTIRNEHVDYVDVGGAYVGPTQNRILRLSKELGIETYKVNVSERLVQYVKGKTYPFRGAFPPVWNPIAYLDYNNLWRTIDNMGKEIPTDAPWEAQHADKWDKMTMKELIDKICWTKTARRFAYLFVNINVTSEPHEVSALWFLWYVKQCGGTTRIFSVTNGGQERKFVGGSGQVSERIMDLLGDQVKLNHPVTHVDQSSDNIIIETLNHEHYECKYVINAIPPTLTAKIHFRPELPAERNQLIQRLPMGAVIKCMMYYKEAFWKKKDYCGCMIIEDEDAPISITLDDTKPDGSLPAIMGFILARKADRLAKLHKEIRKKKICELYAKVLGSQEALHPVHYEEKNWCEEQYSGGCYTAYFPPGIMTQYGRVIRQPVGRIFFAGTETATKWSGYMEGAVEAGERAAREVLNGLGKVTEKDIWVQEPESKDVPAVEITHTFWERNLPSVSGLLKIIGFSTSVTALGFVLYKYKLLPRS
Procedure: (§3) After the compounds or reference inhibitors were preincubated with MAOs for 30 min, residual activities for undialyzed and dialyzed samples were measured. The relative values for undialyzed (AU) and dialyzed (AD) activities were then calculated, and the reversibilities were determined by comparing the AU and AD values of the inhibitors with those of the references.
(§4) Results are the averages of experiments performed in duplicate.

[4] = target: T4, BACE-1 (Homo sapiens, UniProt P56817); assay: BACE-1 Activity Detection Kit, fluorescence assay; assay type: biochemical; conditions: means ± SD of duplicate experiments, read-out: Residual activity at 10 µM (%) BACE-1
T4 construct: purchased Sigma-Aldrich (USA)
T4 sequence (P56817 46-501, species assumed): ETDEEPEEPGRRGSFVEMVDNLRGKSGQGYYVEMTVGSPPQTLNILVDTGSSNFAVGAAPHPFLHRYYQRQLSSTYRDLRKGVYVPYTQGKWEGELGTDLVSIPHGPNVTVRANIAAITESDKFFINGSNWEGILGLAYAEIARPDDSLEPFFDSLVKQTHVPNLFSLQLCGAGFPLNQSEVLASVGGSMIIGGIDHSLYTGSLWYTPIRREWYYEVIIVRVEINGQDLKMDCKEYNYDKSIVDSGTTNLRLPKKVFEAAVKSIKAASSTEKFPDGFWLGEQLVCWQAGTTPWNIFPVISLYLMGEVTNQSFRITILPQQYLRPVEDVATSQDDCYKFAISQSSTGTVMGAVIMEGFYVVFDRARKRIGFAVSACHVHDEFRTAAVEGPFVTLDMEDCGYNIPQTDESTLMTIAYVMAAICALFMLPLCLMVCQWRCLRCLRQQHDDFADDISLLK

[5] = target: T5, human MAO-B (Homo sapiens, UniProt P27338); assay: biochemical; assay type: biochemical; conditions: for remaining activity at 10 µM / IC50: means ± SD of duplicate experiments; for remaining activity at 10 µM: read-out: Residual activity at 10 µM (%) MAO-B
T5 construct: purchased Sigma-Aldrich (USA)
T5 sequence (P27338 1-520): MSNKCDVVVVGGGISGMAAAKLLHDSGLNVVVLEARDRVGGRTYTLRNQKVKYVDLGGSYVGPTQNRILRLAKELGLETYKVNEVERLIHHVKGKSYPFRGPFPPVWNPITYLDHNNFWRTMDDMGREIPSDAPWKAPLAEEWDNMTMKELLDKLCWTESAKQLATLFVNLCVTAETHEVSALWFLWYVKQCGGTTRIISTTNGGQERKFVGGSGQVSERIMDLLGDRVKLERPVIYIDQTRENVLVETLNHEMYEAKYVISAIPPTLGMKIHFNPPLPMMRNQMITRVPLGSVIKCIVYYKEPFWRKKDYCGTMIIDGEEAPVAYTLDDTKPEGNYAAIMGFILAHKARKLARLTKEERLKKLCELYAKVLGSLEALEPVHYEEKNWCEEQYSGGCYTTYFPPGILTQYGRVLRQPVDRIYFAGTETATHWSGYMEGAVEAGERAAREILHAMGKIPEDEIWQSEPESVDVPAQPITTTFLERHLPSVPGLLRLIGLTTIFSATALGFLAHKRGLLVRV
Procedure: as §1, §2

[6] = target: T3, Recombinant human MAO-A; assay: biochemical; assay type: biochemical; conditions: for remaining activity at 10 µM / IC50: means ± SD of duplicate experiments; for remaining activity at 10 µM: read-out: Residual activity at 10 µM (%) MAO-A; for SI (selectivity index): ratio of high IC50/low IC50 for MAO inhibition (compound 1: MAO-A versus MAO-B; compound 2: MAO-B versus MAO-A)
Procedure: as §1, §2

[7] = target: T3, Recombinant human MAO-A; assay: MAO-A inhibition kinetics (Lineweaver-Burk and secondary plots); assay type: biochemical; conditions: for Mode of MAO-A inhibition: Lineweaver-Burk plots; for Ki: secondary plots of Lineweaver-Burk slopes, kynuramine 0.0075-0.12 mM
Procedure: (§5) Kinetic parameters, inhibition types, and […] (Ki) values of potent MAO-A and MAO-B inhibitors (i.e., compound 1 for MAO-A; compound 2 for MAO-A and MAO-B) were determined, as previously described. […]; Inhibitory patterns and Ki values were determined using Lineweaver-Burk plots and secondary plots of their slopes.
(§6) Modes of MAO-A inhibition by compound 1 and modes of MAO-A and MAO-B inhibition by compound 2 were investigated using Lineweaver-Burk plots. […].
(§7) Fig. 3 Lineweaver-Burk plots of monoamine oxidase (MAO)-A inhibition by compound 1 (A) and of MAOA and MAO-B inhibition by compound 2 (C and E for respective MOA isoforms) as well as their respective secondary plots, as slopes of Lineweaver-Burk plots vs. inhibitor concentrations (B, D, and F). […]. […] The initial velocity was expressed as an increase in absorbance per min.

[8] = tested on: MAO-A; conditions: cited from earlier work
[9] = target: T5, human MAO-B; assay: Reversibility of MAO-B inhibition by dialysis; assay type: biochemical
Procedure: as §3, §4

[10] = target: T5, human MAO-B; assay: MAO-B inhibition kinetics (Lineweaver-Burk and secondary plots); assay type: biochemical
Procedure: as §5, §6, §7

[11] = tested on: MAO-B; conditions: cited from earlier work

CC(C)c1cc(=O)c2c(O)cc(O)cc2o1 [Compound 1, 5,7-dihydroxy-2-isopropyl-4H-chromen-4-one]
remaining activity at 10 µM [1]: 70.5 ± 6.31%
IC50 [1]: 31.7 ± 2.39 µM
remaining activity at 10 µM [2]: 80.7 ± 3.46%
Reversibility of MAO-A inhibition [3]: reversible inhibitor
Relative activity of MAO-A, dialyzed (AD) [3]: 90.9%
Relative activity of MAO-A, undialyzed (AU) [3]: 35.5%
remaining activity at 10 µM [4]: 85.8 ± 0.28%
remaining activity at 10 µM [5]: 71.5 ± 5.45%
IC50 [5]: 27 ± 2.78 µM
remaining activity at 10 µM [6]: 25.4 ± 2.24%
IC50 [6]: 2.7 ± 0.034 µM
SI (selectivity index) [6]: 10.0
Mode of MAO-A inhibition [7]: competitive inhibitor
Ki [7]: 0.94 ± 0.28 µM

O=c1oc2cc(O)ccc2c2ccc(O)cc12 [UroA]
IC50 [8]: 5.88 µM

CCC(C)c1cc(=O)c2c(O)cc(O)cc2o1 (stereo not shown) [Compound 2, 5,7-dihydroxy-2-(1-methylpropyl)-4H-chromen-4-one]
Reversibility of MAO-B inhibition ([9]; dialysis): reversible inhibitor
Relative activity of MAO-B, dialyzed (AD) ([9]; inhibitor at twice the IC50, preincubated 30 min, after dialysis): 76.7%
Relative activity of MAO-B, undialyzed (AU) ([9]; inhibitor at twice the IC50, preincubated 30 min, undialyzed): 34.8%
remaining activity at 10 µM [1]: 88.3 ± 2.54%
remaining activity at 10 µM [2]: 96.4 ± 4.27%
Reversibility of MAO-A inhibition [3]: reversible inhibitor
Relative activity of MAO-A, dialyzed (AD) [3]: 79.4%
Relative activity of MAO-A, undialyzed (AU) [3]: 35.6%
remaining activity at 10 µM [4]: 98.3 ± 0.27%
remaining activity at 10 µM [5]: 34.4 ± 7.95%
IC50 [5]: 3.42 ± 1.47 µM
remaining activity at 10 µM [6]: 37.8 ± 0.82%
IC50 [6]: 6.92 ± 0.067 µM
SI (selectivity index) [6]: 2.02
Mode of MAO-B inhibition ([10]; Lineweaver-Burk plots): competitive inhibitor
Ki ([10]; secondary plots of Lineweaver-Burk slopes, benzylamine 0.03-0.6 mM): 1.89 ± 0.014 µM
Mode of MAO-A inhibition [7]: competitive inhibitor
Ki [7]: 3.57 ± 0.6 µM

COc1cccc2nc3ccccc3nc12 [Compound 3, 1-methoxyphenazine]
remaining activity at 10 µM [1]: 83 ± 8.24%
remaining activity at 10 µM [2]: 97 ± 2.72%
remaining activity at 10 µM [4]: 79.9 ± 0.73%
Inhibitory activity against MAO-B (in words) [5]: did not inhibit; also recorded: little inhibitory activity
remaining activity at 10 µM [5]: 96.9 ± 2.65%
Inhibitory activity against MAO-A (in words) [6]: did not inhibit; also recorded: little inhibitory activity
remaining activity at 10 µM [6]: 93.6 ± 4.11%

O=c1oc2cc(O)ccc2c2ccccc12 [UroB]
IC50 [8]: 0.88 µM

CC1CC(=O)c2c(O)cccc2O1 (stereo not shown) [HMC, 5-hydroxy-2-methyl-chroman-4-one]
IC50 [11]: 3.23 µM
IC50 [8]: 14 µM

COc1cc(O)c2c(=O)oc3cc(O)cc(C)c3c2c1 [alternariol monomethyl ether]
IC50 [8]: 1.71 µM

CN1C(=N)N(C)/C(=C/c2c[nH]c3ccccc23)C1=O [aplysinopsin]
IC50 [8]: 0.0056 µM

O=c1oc2cc(O)ccc2c2cc(O)c(O)cc12 [Ur°C]
IC50 [8]: 29.6 µM
